Measured values from patent publication US4769382A, “Preparation for preventing and treatment of skin radiation burn lesions” (priority 1986, dated 1988).

Legend:
Assay type in all cases: in vivo, random-bred albino rats
[1] = system: skin of paws (rat); assay: Radioprotective effect on skin of rat paws upon X-ray irradiation (20 and 30 Gy); conditions: 20 Gy
[2] = system: skin of the auricle (rat); assay: Local radioprotective effect on skin of rat auricle upon β-irradiation (60 Gy); conditions: β-radiation; for Duration of response, dry desquamation / Duration of response, moist desquamation / Duration of response, severe erythema / Duration of response, weak erythema: Eeff 0.76 MeV, applied 20 minutes before irradiation, X ± m
Method: The effect of β-radiation was studied on the skin of floors of the auricle by way of using a flexible applicator containing a source of a soft beta-radiation of ^204 T1. The maximum energy (E) in tissues is […]. The dose rate of the employed sources was 7.2 and 12 Gy/h. […] The extent of the skin radioprotective effect was assessed by a number of clinical dermatological tests by recording visual observations over the progress of radiation dermatitis. The tests were effected by the blank method at strictly predetermined hours of the day by a team of specialists. The form of dermatitis in each irradiated skin locus (moist or dry desquamation, intense and weak erythema) was recorded daily by means of special codes over the entire observation period. The number of the same codes for every irradiated skin locus (frequencies of features) were summed up and a group mean value was calculated. […] The thus-obtained values were statistically processed and evaluated by means of the Student criterion. Therefore, the severity of radiodermatitis was quantified by means of the following tests: (a) duration of periods of light and severe erythema; (b) duration of periods of moist and dry desquamation.

[3] = system: skin (rat); assay: Comparative evaluation of radioprotective effect with known preparations, local X-ray irradiation 30 Gy
Excerpt: For a comparative evaluation the data obtained in a similar experiment with a number of known preparations (castamine, ionol, dimethylsulphoxide), as well as with eugenol (3-methoxy-4-hydroxyallylbenzene) and castor oil were used.
Ionol (4-methyl-2,6-ditretbutylphenol) is employed as control as an analog-antioxidant featuring a radioprotective activity.

[4] = system: back skin (rat); assay: Antiburning effect on thermal burn (III degree) of the back skin
Method: Since the leading role in the pathogenesis of thermal death of cells is played by processes of injury of cellular membranes, the preparation according to the present invention has been tested for feasibility of its use as an antiburning preparation. […] The contact plate of the electric heater had the temperature of 200° C., the exposure time--10 seconds. […] As judged by the clinico-histological assessment, the severity of the thus-produced injury corresponded to a III degree burn. The course of treatment of the animals was started directly after effecting an experimental burn and continued till a complete healing of the wound surface. […] The ointments were prepared on lanolin or vaseline base with different content of the active principle. […] Vaseline and lanolin were used as control.

[5] = Eeff 8 keV, groups 5 (dimethylsulphoxide) and 6 (5% emulsion on vaseline), X ± m

Compound | Diminution of response, moist desquamation [2] | Duration of response, dry desquamation [2] [days] | Duration of response, moist desquamation [2] [days] | Duration of response, severe erythema [2] [days] | Duration of response, weak erythema [2] [days] | Reduction of duration of radiation response stages, moist desquamation [3] [%] | Total weighed evaluation [3] [%] | also measured
C[S+](C)[O-] [Dimethylsulphoxide, dimethylsulphoxide] | 100 % of the control | 1.0 ± 1.2 | 0.0 ± 0.0 | 1.3 ± 1.7 | 1.7 ± 1.7 | 30.0 | 22.5 | Diminution of response, dry desquamation [1]: 50 % of the control; Duration of response, dry desquamation [1, 5]: 2.8 ± 0.6 days; Duration of response, moist desquamation [1, 5]: 0.1 ± 0.1 days; Duration of response, severe erythema [1, 5]: 0.4 ± 0.3 days; Duration of response, weak erythema [1, 5]: 1.6 ± 0.3 days
CC(C)(CO)C(O)C(=O)NCCCO (stereo not shown) [Panthenol] | – | – | – | – | – | – | – | Healing period, female ([4]; female rats, control I (vaseline) 36.8 ± 6.8, control 2 (lanolin) 36.5 ± 6.5): 36.0 ± 7.0 days; Stimulant effect, female ([4]; female rats, relative to control I (vaseline)): +2.2%; Healing period, male ([4]; male rats, control I (vaseline) 32.8 ± 4.0, control 2 (lanolin) 33.1 ± 3.5): 29.7 ± 4.3 days; Stimulant effect, male ([4]; male rats, relative to control 2 (lanolin)): +10,3%
C=CCc1ccc(O)c(OC)c1 [Eugenol, 3-methoxy-4-hydroxyallylbenzene] | – | – | – | – | – | 36.0 | 27.5 | –
CCOC(=O)C1=C(C)NC(C)=C(C(=O)OCC)C1 [Compound of the invention, 2,6-dimethyl-3,5-diethoxycarbonyl-1,4-dihydropyridine] | 100 % of the control | 0.3 ± 0.2 | 0.0 ± 0.0 | 0.3 ± 0.3 | 1.7 ± 0.5 | – | – | Diminution of response, dry desquamation [2]: 86 % of the control; Diminution of response, severe erythema [2]: 86 % of the control
Cc1cc(C(C)(C)C)c(O)c(C(C)(C)C)c1 [Ionol, 4-methyl-2,6-ditertiarybutylphenol] | – | – | – | – | – | 43.0 | 37.85 | Reduction of duration of radiation response stages, erythema [3]: 28.0%
